Data: patent US9452154B2, “Methods for treating HCV” (Gilead Sciences, Inc., priority 2010, dated 2016)
Where two headings read alike, the source gives them in different places.

How the values were obtained:
[1] = Biological Example 3: cytotoxicity (calcein AM), CC50; assay type: cell-based; conditions: human, Huh-7 cells carrying a HCV genotype 1a replicon; HCV genotype 1a replicon cells; calcein AM
Description: The HCV replicon assay was a multiplex assay which can assess both cytotoxicity and anti-replicon activity from the same well. The CC50 assay was performed first.
The cytotoxicity effect was determined by calcein AM conversion to fluorescent product. The percent cytotoxicity was calculated by equation 1:
[formula] where XC is the fluorescence signal from the compound-treated well; MB is the average fluorescence signal from puromycin-treated wells; MD is the average fluorescence signal from DMSO-treated wells. The anti-HCV replication activity was determined by the luminescence signal generated from the reporter renilla luciferase of the HCV replicon. The percent inhibition on HCV replicon was calculated using equation 1, where XC is the luminescence signal from compound-treated well; MB is average luminescence signal from the ITMN-191-treated wells; MD is the average luminescence signal from DMSO-treated wells.
Both CC50 and EC50 values were obtained using Pipeline Pilot 5.0 software package (Accelrys, San Diego, Calif.) by nonlinear regression fitting of experimental data to equation 2: […]

[2] = system: Genotype 1b replicon cells; assay: Biological Example 6: compound concentration required to suppress replicon RNA by 1-1.5 log over 6 days (QRT-PCR); assay type: cell-based, HCV; conditions: 6 day assay
Description: Flasks were incubated at 37° C., media and compounds were refreshed every two days. After 6 days of incubation the replicon cells were collected for RNA extraction and replicon RNA QRT-PCR analysis.

[3] = system: NS3 GT1a mutant replicons; assay type: cell-based, HCV
Description: (§1) GT1b and GT1a replicons carrying Renilla Luciferase reporter were used to generate the mutant replicons. The mutations were introduced into the replicon construct by site-directed mutagenesis and confirmed by sequencing. Mutant replicon RNAs were generated from DNA by in vitro transcription and transfected into Huh-7 Lunet or C1 cells
(§2) Compounds were serially diluted 1:3 in 100% DMSO (Sigma). These serial dilutions were added to the cells at a 1:200 dilution to achieve a final concentration of 0.5% DMSO in a total volume of 200 μL. […] EC50 values were calculated using Prism.
(§3) For comparison, a fold change of 0-3 is considered “sensitive”, a fold change of 3-10 is considered “low”, a fold change of 10-50 is considered “medium” and a fold change of greater than […] is considered “high”.

[4] = system: NS3 GT1b mutant replicons; assay type: cell-based, HCV
Description: as §1, §2, §3

[5] = system: GT1b and GT1a mutant replicons; assay: Biological Example 8: summary of cross resistance of mutant replicons; assay type: cell-based, HCV
Description: as §1, §2, §3

[6] = system: Huh-7 cells carrying a HCV genotype 1a replicon; assay: Biological Example 3: cytotoxicity in combination studies (MacSynergy II); conditions: in combination with Ribavirin

Structure (SMILES): CC(C)OC(=O)[C@H](C)N[P@](=O)(OC[C@H]1O[C@@](C#N)(c2ccc3c(N)ncnn23)[C@](C)(O)[C@@H]1OC(=O)C(C)C)Oc1ccccc1 [Compound 4]
- CC50 at 3 days [1]: > 44.4 µM
- Compound concentration able to induce replicon RNA 1-1.5 log drop [2]: 1000 nM
- fold change in EC50 vs wild-type GT1a ([3]; mutant A156T): 0.2 fold
- fold change in EC50 vs wild-type GT1a ([3]; mutant D168A): 0.9 fold
- fold change in EC50 vs wild-type GT1a ([3]; mutant D168E): 1.5 fold
- fold change in EC50 vs wild-type GT1a ([3]; mutant D168G): 0.8 fold
- fold change in EC50 vs wild-type GT1a ([3]; mutant D168H): 1.0 fold
- fold change in EC50 vs wild-type GT1a ([3]; mutant D168N): 1.0 fold
- fold change in EC50 vs wild-type GT1a ([3]; mutant D168V): 1.4 fold
- fold change in EC50 vs wild-type GT1a ([3]; mutant D168Y): 1.0 fold
- fold change in EC50 vs wild-type GT1a ([3]; mutant R155I): 0.6 fold
- fold change in EC50 vs wild-type GT1a ([3]; mutant R155K): 0.7 fold
- fold change in EC50 vs wild-type GT1a ([3]; mutant R155K + L31M): 0.4 fold
- fold change in EC50 vs wild-type GT1a ([3]; mutant R155K + L31M + Y448H): 0.6 fold
- fold change in EC50 vs wild-type GT1a ([3]; mutant R155K + M28T): 0.2 fold
- fold change in EC50 vs wild-type GT1a ([3]; mutant R155K + M28T + Y448H): 0.3 fold
- fold change in EC50 vs wild-type GT1a ([3]; mutant R155K + Q30H + Y448H): 0.9 fold
- fold change in EC50 vs wild-type GT1a ([3]; mutant R155K + Q30R): 0.9 fold
- fold change in EC50 vs wild-type GT1a ([3]; mutant R155K + Y93H): 0.3 fold
- fold change in EC50 vs wild-type GT1a ([3]; mutant R155K + Y488H (first line, r20)): 0.7 fold
- fold change in EC50 vs wild-type GT1a ([3]; mutant R155K + Y488H (second line, r26)): 0.5 fold
- fold change in EC50 vs wild-type GT1a ([3]; mutant R155M): 0.4 fold
- fold change in EC50 vs wild-type GT1a ([3]; mutant R155S): 0.2 fold
- fold change in EC50 vs wild-type GT1a ([3]; mutant R155T): 0.2 fold
- fold change in EC50 vs wild-type GT1a ([3]; mutant R155W): 0.7 fold
- fold change in EC50 vs wild-type GT1a ([3]; mutant R155k + Q30H): 0.6 fold
- fold change in EC50 vs wild-type GT1b ([4]; mutant A156D): 0.4 fold
- fold change in EC50 vs wild-type GT1b ([4]; mutant A156G): 0.6 fold
- fold change in EC50 vs wild-type GT1b ([4]; mutant A156T): 0.9 fold
- fold change in EC50 vs wild-type GT1b ([4]; mutant A156V): 0.6 fold
- fold change in EC50 vs wild-type GT1b ([4]; mutant D168A): 1.0 fold
- fold change in EC50 vs wild-type GT1b ([4]; mutant D168E): 1.0 fold
- fold change in EC50 vs wild-type GT1b ([4]; mutant D168E + L31V + Y448H): 1.1 fold
- fold change in EC50 vs wild-type GT1b ([4]; mutant D168E + Y93H + Y448H): 0.9 fold
- fold change in EC50 vs wild-type GT1b ([4]; mutant D168E + Y448H): 0.7 fold
- fold change in EC50 vs wild-type GT1b ([4]; mutant D168G): 0.7 fold
- fold change in EC50 vs wild-type GT1b ([4]; mutant D168H): 1.7 fold
- fold change in EC50 vs wild-type GT1b ([4]; mutant D168H + C445F): 0.5 fold
- fold change in EC50 vs wild-type GT1b ([4]; mutant D168L + C445F): 0.3 fold
- fold change in EC50 vs wild-type GT1b ([4]; mutant D168N): 1.2 fold
- fold change in EC50 vs wild-type GT1b ([4]; mutant D168T): 1.4 fold
- fold change in EC50 vs wild-type GT1b ([4]; mutant D168V): 0.9 fold
- fold change in EC50 vs wild-type GT1b ([4]; mutant D168V + C445F): 0.7 fold
- fold change in EC50 vs wild-type GT1b ([4]; mutant D168V + L31V + Y448H): 0.6 fold
- fold change in EC50 vs wild-type GT1b ([4]; mutant D168V + Y93H + Y448H): 0.8 fold
- fold change in EC50 vs wild-type GT1b ([4]; mutant D168V + Y448H): 0.9 fold
- fold change in EC50 vs wild-type GT1b ([4]; mutant D168Y): 0.5 fold
- fold change in EC50 vs wild-type GT1b ([4]; mutant L31V + D168E): 1.6 fold
- fold change in EC50 vs wild-type GT1b ([4]; mutant L31V + D168V): 1.1 fold
- fold change in EC50 vs wild-type GT1b ([4]; mutant R155C): 0.8 fold
- fold change in EC50 vs wild-type GT1b ([4]; mutant R155G): 0.2 fold
- fold change in EC50 vs wild-type GT1b ([4]; mutant R155K): 0.6 fold
- fold change in EC50 vs wild-type GT1b ([4]; mutant R155L): 0.7 fold
- fold change in EC50 vs wild-type GT1b ([4]; mutant R155Q): 0.8 fold
- fold change in EC50 vs wild-type GT1b ([4]; mutant R155W): 0.5 fold
- fold change in EC50 vs wild-type GT1b ([4]; mutant Y93H + D168E): 1.3 fold
- fold change in EC50 vs wild-type GT1b ([4]; mutant Y93H + D168V): 1.0 fold
- susceptibility of mutants ([5]; all single NS3 PI-resistant mutants): full susceptibility
- susceptibility of mutants ([5]; triple class mutants that confer resistance to PI, NS5A and Compound 1): susceptible
- Antagonism Volume (cytotoxicity) [6]: −1 ± 2 μM^2%
- Interaction (cytotoxicity) [6]: Additivity (Additivity: ≦25 and >−25 nM^2%)
- Synergy Volume (cytotoxicity) [6]: 4 ± 3 μM^2%
